Reference: PubChem BioAssay AID504489 (Sanford-Burnham Center for Chemical Genomics, 2011)
Active and inactive are the calls of the source.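 How the source made its calls: active means IC50 at or below 20 µM; inactive means the rest.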

Test system: 697 B-cell NF-kB luciferase, PMA/ionomycin, luminescence 16 h
Experiment: inhibition of PMA/ionomycin-stimulated NF-kB luciferase reporter, SAR follow-up, B- and T-cell screen hits, 697 cells, luminescence (AID 504489)

Row | IC50 | SMILES
1 | > 79000 nM (inactive) | Nc1cccc2cccnc12
2 | 1290 nM | COc1cc(NS(=O)(=O)c2ccccc2)c2ncccc2c1
3 | 2580 nM | COc1cc(NS(=O)(=O)c2ccc(C)cc2)c2ncccc2c1
4 | > 79000 nM (inactive) | Cc1ccc2cccc(NS(=O)(=O)c3ccccc3)c2n1
5 | 1400 nM | O=S(=O)(Nc1cccc2cccnc12)c1ccccc1

The next lines start with the compound.

Row | SMILES | IC50
6 | COc1cc(N)c2ncccc2c1 | > 79000 nM (inactive)
7 | Cc1ccc2cccc(N)c2n1 | > 79000 nM (inactive)
8 | Cc1ccc(S(=O)(=O)Nc2cccc3ccc(C)nc23)cc1 | 2740 nM
9 | Cc1ccc(S(=O)(=O)Nc2cccc3cccnc23)cc1 | 2210 nM
